Experimental data as given in ChEMBL document CHEMBL1156829 (Proc Natl Acad Sci U S A, 2008).

Columns and labels:
Plasmodium falciparum [1] = assay: NOVARTIS: Inhibition of Plasmodium falciparum 3D7 (drug-susceptible) proliferation in erythrocyte-based infection assay; type: functional, organism-based; settings: Plasmodium falciparum, 3D7
Plasmodium falciparum [2] = assay: NOVARTIS: Inhibition of Plasmodium falciparum W2 (drug-resistant) proliferation in erythrocyte-based infection assay; type: functional, organism-based; settings: Plasmodium falciparum, W2; read-out: EC50
[3] = NOVARTIS: Cytotoxicity against human hepatocellular carcinoma cell line (Huh7); type: toxicity, cell-based, Huh-7; settings: Huh7 cells (hepatocellular carcinoma cell line)

SMILES: CCC1(C)CC(CCNCc2ccccc2O)(c2ccc(OC)cc2)CCO1 (stereo not drawn)
- EC50 (Plasmodium falciparum [1]): 455 nM
- EC50 (Plasmodium falciparum [2]): 76.5 nM
- CC50 [3]: 21400 nM

SMILES: COc1ccc(C2CC(=O)C3=C(C2)NC(C)=C(C(=O)OC(C)C)C3c2ccccc2Br)cc1 (stereo not drawn)
- EC50 (Plasmodium falciparum [1]): 62 nM
- EC50 (Plasmodium falciparum [2]): 28.5 nM
- CC50 [3]: > 100000 nM

SMILES: Cc1ccccc1CN1CCN(C/C=C/c2ccccc2)CCC1=O
- EC50 (Plasmodium falciparum [1]): > 1250 nM
- EC50 (Plasmodium falciparum [2]): 26.7 nM
- CC50 [3]: > 10000 nM

SMILES: O=C(C1CC1)N1CCc2cc(Br)cc(S(=O)(=O)N3CCCCCC3)c21
- EC50 (Plasmodium falciparum [1]): 1430 nM
- EC50 (Plasmodium falciparum [2]): 834 nM
- CC50 [3]: > 100000 nM

SMILES: CC(=O)NC1=NN(C(C)=O)C(c2ccc(Br)cc2)S1 (stereo not drawn)
- EC50 (Plasmodium falciparum [1]): > 7540 nM
- EC50 (Plasmodium falciparum [2]): 976 nM
- CC50 [3]: > 100000 nM

SMILES: O=C1Nc2ccc(S(=O)(=O)Nc3ccc(NS(=O)(=O)c4ccc5c6c(cccc46)C(=O)N5)cc3)c3cccc1c23
- EC50 (Plasmodium falciparum [1]): > 1180 nM
- EC50 (Plasmodium falciparum [2]): > 1250 nM
- CC50 [3]: > 8120 nM

SMILES: CCCCNC(=O)C(c1cccc(OC)c1)N1C(=O)c2cc(Oc3ccccc3)ccc2NC(=O)C1CO (stereo not drawn)
- EC50 (Plasmodium falciparum [1]): 181 nM
- EC50 (Plasmodium falciparum [2]): < 8 nM
- CC50 [3]: > 14000 nM

SMILES: CCCCOc1ccc(/C=C/C(=O)NCc2ccco2)cc1
- EC50 (Plasmodium falciparum [1]): 183 nM
- EC50 (Plasmodium falciparum [2]): 744 nM
- CC50 [3]: > 10000 nM

SMILES: Cc1ccc(CN2C3CCCC2CC(NC(=O)Nc2cccc(F)c2)C3)cc1 (stereo not drawn)
- EC50 (Plasmodium falciparum [1]): 898 nM
- EC50 (Plasmodium falciparum [2]): 695 nM
- CC50 [3]: > 10000 nM

SMILES: CCC(=O)N1CCc2cc(Br)cc(S(=O)(=O)N3CC(C)CC(C)C3)c21 (stereo not drawn)
- EC50 (Plasmodium falciparum [1]): 1970 nM
- EC50 (Plasmodium falciparum [2]): 1160 nM
- CC50 [3]: > 100000 nM

SMILES: Cc1ccn2c(NC(C)(C)CC(C)(C)C)c(-c3ccccc3OC(=O)Cc3ccccc3)nc2c1
- EC50 (Plasmodium falciparum [1]): 926 nM
- EC50 (Plasmodium falciparum [2]): 21.6 nM
- CC50 [3]: > 10000 nM

SMILES: CCOc1cccc2oc(=O)c(C(=O)Nc3cc(C(C)(C)C)on3)cc12
- EC50 (Plasmodium falciparum [1]): > 11700 nM
- EC50 (Plasmodium falciparum [2]): > 4620 nM
- CC50 [3]: > 100000 nM

SMILES: CC1CN(C(=O)C(Cc2c[nH]c3ccccc23)NC(=O)CCl)CCN1C(=O)Nc1ccccc1 (stereo not drawn)
- EC50 (Plasmodium falciparum [1]): 289 nM
- EC50 (Plasmodium falciparum [2]): > 1250 nM
- CC50 [3]: > 10000 nM

SMILES: Cc1c2ccccc2c(C)c2ccccc12
- EC50 (Plasmodium falciparum [1]): 803 nM
- EC50 (Plasmodium falciparum [2]): 827 nM
- CC50 [3]: 21600 nM

SMILES: CCOC(=O)C1=C(C)NC2=C(C(=O)C(C(=O)OC)C(C)C2)C1c1cc(Br)c(OCC)c(OC)c1 (stereo not drawn)
- EC50 (Plasmodium falciparum [1]): 255 nM
- EC50 (Plasmodium falciparum [2]): 39.6 nM
- CC50 [3]: > 100000 nM

SMILES: CC(=O)CSc1nnc(-c2ccncc2)n1C
- EC50 (Plasmodium falciparum [1]): > 1250 nM
- EC50 (Plasmodium falciparum [2]): 310 nM
- CC50 [3]: > 12700 nM

SMILES: O=C1NN=C(CC(=O)N2CC[C@@H](c3ccccc3)[C@H](O)C2)C2C=CC=CC12 (stereo partly drawn)
- EC50 (Plasmodium falciparum [1]): > 853 nM
- EC50 (Plasmodium falciparum [2]): > 1590 nM
- CC50 [3]: > 10000 nM

SMILES: CCc1c2ccc(C)n2cc[n+]1CC
- EC50 (Plasmodium falciparum [1]): 610 nM
- EC50 (Plasmodium falciparum [2]): 749 nM
- CC50 [3]: > 100000 nM

SMILES: Nc1c(C(=O)Nc2ccc(F)cc2)sc2nc3c(c(-c4cccs4)c12)CCCCC3
- EC50 (Plasmodium falciparum [1]): 937 nM
- EC50 (Plasmodium falciparum [2]): 388 nM
- CC50 [3]: > 100000 nM

SMILES: O=C(NCCCN1CCCCC1)c1ccc2c(c1)sc1nc(-c3ccc(F)cc3)cn12
- EC50 (Plasmodium falciparum [1]): 694 nM
- EC50 (Plasmodium falciparum [2]): 870 nM
- CC50 [3]: > 100000 nM

SMILES: Cc1cc(NCCc2ccccc2)nc2cc(O)ccc12
- EC50 (Plasmodium falciparum [1]): 377 nM
- EC50 (Plasmodium falciparum [2]): 69.5 nM
- CC50 [3]: 29500 nM

SMILES: CCCCNC1=CC(=O)C(=O)c2ccccc21
- EC50 (Plasmodium falciparum [1]): 481 nM
- EC50 (Plasmodium falciparum [2]): 324 nM
- CC50 [3]: > 77800 nM

SMILES: CN1c2ccccc2N(C)C1c1ccco1
- EC50 (Plasmodium falciparum [1]): 288 nM
- EC50 (Plasmodium falciparum [2]): 356 nM
- CC50 [3]: > 10000 nM

SMILES: CN(C)CCNc1cc(-c2ccc3ccccc3c2)nc2ccccc12
- EC50 (Plasmodium falciparum [1]): 810 nM
- EC50 (Plasmodium falciparum [2]): 729 nM
- CC50 [3]: > 100000 nM

SMILES: CC(=O)Nc1ccc2c(c1)C(=O)N(C(CC(C)C)C(=O)NCC(=O)O)[C@@H](CCC(=O)OCc1ccccc1)C(=O)N2 (stereo partly drawn)
- EC50 (Plasmodium falciparum [1]): 48.2 nM
- EC50 (Plasmodium falciparum [2]): > 503 nM
- CC50 [3]: > 10000 nM

SMILES: COC(=O)c1c(NC(=O)c2ccc(S(=O)(=O)N3CCOCC3)cc2)sc2c1CCN(C(C)=O)C2
- EC50 (Plasmodium falciparum [1]): 8660 nM
- EC50 (Plasmodium falciparum [2]): 878 nM
- CC50 [3]: > 100000 nM

SMILES: Cc1cc(N(C)C)cc(C)[n+]1OC(=O)N(c1ccccc1)c1ccccc1
- EC50 (Plasmodium falciparum [1]): > 1490 nM
- EC50 (Plasmodium falciparum [2]): 2000 nM
- CC50 [3]: > 10000 nM

SMILES: Cc1ccn2c(NC(C)(C)CC(C)(C)C)c(-c3ccccc3OC(=O)CCc3ccccc3)nc2c1
- EC50 (Plasmodium falciparum [1]): 853 nM
- EC50 (Plasmodium falciparum [2]): 18.6 nM
- CC50 [3]: > 10000 nM

SMILES: Cc1cc(Nc2ccc(Cl)c(Cl)c2)n2ncnc2n1
- EC50 (Plasmodium falciparum [1]): 1680 nM
- EC50 (Plasmodium falciparum [2]): 674 nM
- CC50 [3]: > 100000 nM

SMILES: C#CCNC(=O)c1ccc(OC2CCN(CC(c3ccccc3)c3ccccc3)CC2)c(OC)c1
- EC50 (Plasmodium falciparum [1]): 207 nM
- EC50 (Plasmodium falciparum [2]): 88.3 nM
- CC50 [3]: 55000 nM

SMILES: O=C(O)c1ccc(C=NNc2ccc([N+](=O)[O-])cc2)cc1
- EC50 (Plasmodium falciparum [1]): > 1160 nM
- EC50 (Plasmodium falciparum [2]): > 1250 nM
- CC50 [3]: > 10000 nM

SMILES: Cc1nc2cc(-c3ccc(I)cc3)nn2c(O)c1C
- EC50 (Plasmodium falciparum [1]): 4200 nM
- EC50 (Plasmodium falciparum [2]): 1540 nM
- CC50 [3]: > 100000 nM

SMILES: NCC(=O)N1CCn2c(nc(-c3ccccc3)c2Nc2ccc3c(c2)OCO3)C1
- EC50 (Plasmodium falciparum [1]): 162 nM
- EC50 (Plasmodium falciparum [2]): 198 nM
- CC50 [3]: > 100000 nM

SMILES: c1cc2cc3ccc(OCCN4CCCCC4)cc3nc2cc1OCCN1CCCCC1
- EC50 (Plasmodium falciparum [1]): 348 nM
- EC50 (Plasmodium falciparum [2]): 772 nM
- CC50 [3]: > 10000 nM

SMILES: CCCCCCCCCCCCCC(=O)Oc1ccccc1-c1nc2cc(C)ccn2c1NC(C)(C)CC(C)(C)C
- EC50 (Plasmodium falciparum [1]): 1520 nM
- EC50 (Plasmodium falciparum [2]): 88.4 nM
- CC50 [3]: > 10000 nM

SMILES: COc1ccc(C(OCC(=O)N2CCN(Cc3ccccc3)CC2)c2ccc(F)cc2)cn1 (stereo not drawn)
- EC50 (Plasmodium falciparum [1]): 733 nM
- EC50 (Plasmodium falciparum [2]): 187 nM
- CC50 [3]: > 10000 nM

SMILES: Oc1ccc(-c2ccc3c(c2)OCO3)cc1CNCC1CC2C=CC1C21CC1 (stereo not drawn)
- EC50 (Plasmodium falciparum [1]): 1110 nM
- EC50 (Plasmodium falciparum [2]): 274 nM
- CC50 [3]: > 100000 nM

SMILES: O=C1C(Cc2ccccc2)N=C2c3ccccc3N=C(SCc3ccc(Cl)cc3)N12 (stereo not drawn)
- EC50 (Plasmodium falciparum [1]): > 1250 nM
- EC50 (Plasmodium falciparum [2]): > 1050 nM
- CC50 [3]: > 10000 nM

SMILES: CCC(C)NCC(O)(c1ccc(Cl)cc1)c1ccc(Cl)cc1 (stereo not drawn)
- EC50 (Plasmodium falciparum [1]): 639 nM
- EC50 (Plasmodium falciparum [2]): 184 nM
- CC50 [3]: 46300 nM

SMILES: CCn1c(CNc2ccc(Cl)cc2)nnc1SCC(=O)Nc1cccc(C)c1C
- EC50 (Plasmodium falciparum [1]): > 1250 nM
- EC50 (Plasmodium falciparum [2]): 26.7 nM
- CC50 [3]: > 10000 nM

SMILES: NC(=O)CSc1nnc2ccc(-c3ccc4c(c3)OCO4)nn12
- EC50 (Plasmodium falciparum [1]): > 1250 nM
- EC50 (Plasmodium falciparum [2]): > 1110 nM
- CC50 [3]: > 10000 nM

SMILES: Cc1ccc(/C=C/c2ccc3ccccc3[n+]2C)cc1
- EC50 (Plasmodium falciparum [1]): 131 nM
- EC50 (Plasmodium falciparum [2]): 217 nM
- CC50 [3]: > 10000 nM

SMILES: COc1ccc(C(=O)Oc2ccccc2-c2nc3ccccn3c2NC(C)(C)CC(C)(C)C)cc1
- EC50 (Plasmodium falciparum [1]): > 1600 nM
- EC50 (Plasmodium falciparum [2]): 7.51 nM
- CC50 [3]: > 10000 nM

SMILES: CC(C)CC(=O)OC1C(N2CCCCC2)c2c(ccc(/C=C/C(=O)N3CCCCC3)c2O)OC1(C)C (stereo not drawn)
- EC50 (Plasmodium falciparum [1]): 920 nM
- EC50 (Plasmodium falciparum [2]): 975 nM
- CC50 [3]: > 10000 nM

SMILES: Cc1ccc(CN2CCN(Cc3cn(C(C)C)c4ccccc34)CC2CCO)o1 (stereo not drawn)
- EC50 (Plasmodium falciparum [1]): > 12500 nM
- EC50 (Plasmodium falciparum [2]): 4210 nM
- CC50 [3]: > 100000 nM

SMILES: COc1ccc(C(NC(=O)COc2ccccc2)c2cc(Cl)c3cccnc3c2O)cc1 (stereo not drawn)
- EC50 (Plasmodium falciparum [1]): 3570 nM
- EC50 (Plasmodium falciparum [2]): 918 nM
- CC50 [3]: > 100000 nM

SMILES: O=C1CSC(=Nc2ccc(F)c(Cl)c2)N1c1ccc(F)c(Cl)c1
- EC50 (Plasmodium falciparum [1]): > 1250 nM
- EC50 (Plasmodium falciparum [2]): 26.7 nM
- CC50 [3]: > 10000 nM

SMILES: CCCCNc1c2c(c(C#N)c3nc4ccccc4n13)CCC2
- EC50 (Plasmodium falciparum [1]): 113 nM
- EC50 (Plasmodium falciparum [2]): 367 nM
- CC50 [3]: > 100000 nM

SMILES: CCCCn1c(=N)c(C(=O)NC(C)c2ccccc2)cc2c(=O)n3cccc(C)c3nc21 (stereo not drawn)
- EC50 (Plasmodium falciparum [1]): 1380 nM
- EC50 (Plasmodium falciparum [2]): > 5680 nM
- CC50 [3]: > 100000 nM

SMILES: COc1ccc(-[n+]2cc(-c3ccc(Cl)cc3)n3c2SCCC3)cc1
- EC50 (Plasmodium falciparum [1]): 673 nM
- EC50 (Plasmodium falciparum [2]): 1060 nM
- CC50 [3]: > 100000 nM

SMILES: COC(=O)C1=C(C)NC2=C(C(=O)CC(c3ccc(Cl)cc3)C2)C1c1ccccc1 (stereo not drawn)
- EC50 (Plasmodium falciparum [1]): 342 nM
- EC50 (Plasmodium falciparum [2]): 152 nM
- CC50 [3]: > 100000 nM
